Here are results for 13 molecules from US12636317B2, “Manipulation and use of antigen-specific regulatory T cells” (The Board of Trustees of the Leland Stanford Junior …, priority 2019, dated 2026).

The subject of assay [1] is 6218 TCR. In kind it is binding, mouse. As to conditions: Jurkat αβ−/− cells, H2-Db tetramer.
Assay [2] has as its system SP specific CD8+ T cells. Kind of assay: Tetramer enrichment of SP-specific CD8+ T cells from spleen and LN after immunization. It is filed as in vivo, C57BL/6J mice. As to conditions: 10D PI.
Assay [3] deals with EAE6-CD8 TCR. It is filed as binding, mouse. The settings on record: Jurkat αβ−/− cells, H2-Db tetramer.
The test system of assay [4] is EAE7-CD8 TCR. In kind it is binding, mouse. The settings on record: Jurkat αβ−/− cells, H2-Db tetramer.
Assay [5] relates to experimental autoimmune encephalomyelitis (EAE). Kind of assay: Induction and evaluation of EAE (clinical scores). It is filed as in vivo, C57BL/6J mice.
Assay [6] concerns MOG35-55 specific CD4+ T cells. Kind of assay: In vitro proliferation/suppression assay (CTV dilution). In kind it is cell-based, mouse. As to conditions: CD4+ T cells from MOG immunized mice stimulated with MOG35-55.
Description: In vitro proliferation/suppression assay. Spleen and LN cells were harvested from WT or immunized mice. Single cell suspensions were prepared, and RBCs were lysed using Ack lysis buffer (ThermoFisher scientific A1049201). […] Post CD4+ T cell enrichment, cells were counted and labelled with CellTrace™ Violet Dye (ThermoFisher scientific C34557) according to manufacturer instructions.
In vitro proliferation/suppression assays were set up according to previously published protocol. Briefly, labelled CD4+ T cells were co-cultured either with CD8+ T cells (1:1 ratio, 0.25×10^6 cells/well) or without CD8+ T cells in the presence of pan DC's (0.75×10^6 cells/well). In some of the suppression experiments cells were pre-included with 10 μg/ml of anti-Qa-1b neutralizing antibody (6A8.6F10.1A16, BD Biosciences). Cells were cultured in a total volume of 200 μl in a 96-well round bottom plate. The CD4+ T cells were stimulated with either MOG35-55 or not. On day 7, the cells were washed and stained with surface antibodies and analyzed on LSR II (Becton Dickinson).
In assay [7] the test system is MOG35-55 specific CD4+ T cells. Kind of assay: Tetramer enrichment of MOG35-55 I-Ab specific CD4+ T cells from spleen and LN after immunization. In kind it is in vivo, C57BL/6J mice. The settings on record: D10 after immunization.
The subject of assay [8] is ovalbumin specific TCR (OT-1) expressed in 58 αβ−/− cells. Briefly: T cell stimulation assay (CD69) with peptide- or protein-pulsed BMDCs. In kind it is cell-based, mouse. As to conditions: co-culture with loaded BMDCs. The protocol:
T cell stimulation assays. T cell stimulation assays were performed as previously described. All the T cell peptide stimulation experiments were done in 96 well round bottom plates with a 200 μl total volume. T2, K562 cells or BMDCs were pulsed with 10-100 μg of the peptides for 45 minutes, washed once and plated (10,000 cells/well). Cell lines expressing TCRs (100,000 cells/well) were co-cultured with APCs for 18 hr. At the end of stimulation, cells were harvested, washed, and stained with TCRβ, human CD3, and CD69 and analyzed on LSR II (Becton Dickinson) for activation.

Assay [9] deals with T1, myelin oligodendrocyte glycoprotein (MOG); the tetramer is called MOG35-55 I-Ab in the results peptide on … (mouse).
T1 peptide: GWYRSPFSRVV
Briefly: multimer staining.

The target in assay [10] is T2, yeast H2-Db library peptide enriched by the EAE7-CD8 TCR peptide on H2-Db (mouse).
T2 peptide: QRHENLHRM
Briefly: binding, other.

Assay [11] concerns the target T3, yeast H2-Db library peptide enriched by the EAE7-CD8 TCR peptide on H2-Db (mouse).
T3 peptide: RRILNLGGM
Kind of assay: binding, other.

The target in assay [12] is T4, yeast H2-Db library peptide enriched by the EAE7-CD8 TCR peptide on H2-Db (mouse).
T4 peptide: RDVHNPDVI
Briefly: binding, other.

Assay [13] concerns the target T5, yeast H2-Db library peptide enriched by the EAE7-CD8 TCR peptide on H2-Db (mouse).
T5 peptide: TCAYNPRGM
Kind of assay: binding, other.

Assay [14] concerns the target T6, yeast H2-Db library peptide enriched by the EAE7-CD8 TCR peptide on H2-Db (mouse).
T6 peptide: TRLVNDVDL
Kind of assay: binding, other.

Assay [15] deals with T7, yeast H2-Db library peptide enriched by the EAE7-CD8 TCR peptide on H2-Db (mouse).
T7 peptide: WSLRNLVML
Kind of assay: binding, other.

Assay [16] has as its target T8, surrogate peptide (SP) from the yeast H2-Db library; no match in the mouse genome peptide on H2-Db (mouse).
T8 peptide: YQPGNWEYI
Kind of assay: multimer staining.

Assay [17] deals with T9, surrogate peptide (SP) from the yeast H2-Db library; no match in the mouse genome peptide on H2-Db (mouse).
T9 peptide: HDRVNWEYI
Briefly: multimer staining.

The target of assay [18] is T10, yeast H2-Db library peptide enriched by the EAE6-CD8 TCR peptide on H2-Db (mouse).
T10 peptide: NHRNNRYFFL
Briefly: binding, other.

The target in assay [19] is T11, yeast H2-Db library peptide enriched by the EAE6-CD8 TCR peptide on H2-Db (mouse).
T11 peptide: GTEFNHWAAI
Kind of assay: binding, other.

The target in assay [20] is T12, yeast H2-Db library peptide enriched by the EAE6-CD8 TCR peptide on H2-Db (mouse).
T12 peptide: FQRGNRLMWL
Kind of assay: binding, other.

The target of assay [21] is T13, yeast H2-Db library peptide enriched by the EAE6-CD8 TCR peptide on H2-Db (mouse).
T13 peptide: ASIANWPLAI
Briefly: binding, other.

For assay [22], the target named is T14, yeast H2-Db library peptide enriched by the EAE6-CD8 TCR peptide on H2-Db (mouse).
T14 peptide: NHRTNRYFFL
Kind of assay: binding, other.

Assay [23] has as its target T15, surrogate peptide (SP) from the yeast H2-Db library; no match in the mouse genome peptide on H2-Db (mouse).
T15 peptide: SMRPNHFFFL
Briefly: multimer staining.

In assay [24] the target is T16, surrogate peptide (SP) from the yeast H2-Db library; no match in the mouse genome peptide on H2-Db (mouse).
T16 peptide: ASRSNRYFWL
Kind of assay: multimer staining.

Setting [25] is: MOG+SP immunization, spleen and LN.
Setting [26] is: SP immunization in comparison to WT mice.
Setting [27] is: Table 7, MOG, SP challenge, MOG challenge (challenge seven days after first immunization), n=10.
[28] abbreviates: Table 7, challenge seven days after first immunization, affected if clinical scores ≥1 for ≥2 consecutive days.
[29] abbreviates: Table 7, challenge seven days after first immunization, mean ± SEM.
[30] abbreviates: Table 6, MOG35-55 with or without SP, mean ± SEM.
[31] abbreviates: Table 6, immunization with MOG35-55, CFA and PTX with or without SP, n=10.

As for “SSLENFRAYV [H2-Db-restricted acid polymerase peptide 224-233, ligand of 6218 TCR]”, the “pMHC tetramer staining of 6218 TCR cells” value in [1] is “robust staining”.

In the case of “SMRPNHFFFL [surrogate peptide for EAE6-CD8 TCR from H2-Db yeast library]”, the “frequency of CD8+ T cells specific for the peptide” value (shortened to “frequency of CD8+ T cells specific”) in [2] (setting [25]) is given as “increased”; in assay [2] (setting [26]), “higher frequency”. Moreover, the “pMHC tetramer staining of EAE6-CD8 TCR cells” value in assay [3] is given as “robust staining”.

For the molecule “YQPGNWEYI [top enriched surrogate peptide for EAE7-CD8 TCR]”, the “frequency of CD8+ T cells specific” value in [2] (setting [26]) is given as “no change”. The “pMHC tetramer staining of EAE7-CD8 TCR cells” value in [4] is on record as “robust staining”.

Consider “MOG challenge: mice immunized with SP, then challenged with MOG35-55 seven days after immunization (MEVGWYRSPFSRVVHLYRNGK; UniProt Q61885 63-83, looked up, fragment)”, for which, in [5] (setting [27]), the “Incidence (affected/total)” value was 6/10. Moreover, in assay [5] (setting [28]), the “Incidence, percentage affected” value is listed as 60%. Also, in assay [5] (setting [29]), the “CDS, cumulative disease score over 30 days of experiment” value came out at 43.3 ± 5.3; the “DA, days affected” value is given as 8.2 ± 2.5; the “DO, day of onset in affected animals” value was determined as 10 ± 2.8; the “PS, peak score” value came to 1.5 ± 0.4. For the same molecule, in assay [5] (setting [29]), the “SI, severity index (cumulative disease score/days affected)” value amounted to 1.29 ± 0.3.

Turning to “MOG35-55: EAE-inducing myelin oligodendrocyte glycoprotein peptide 35-55 (MEVGWYRSPFSRVVHLYRNGK; UniProt Q61885 63-83, looked up, fragment)”, the “incidence of EAE disease (of the mice)” value in assay [5] (MOG immunization with or without SP) is reported as 100%. Moreover, in [5] (setting [30]), the “CDS, cumulative disease score” value was found to be 46.3 ± 5.9; the “DA, days affected” value worked out at 16.3 ± 0.7; the “DO, day of onset in affected animals” value turned out to be 13.8 ± 0.2; the “PS, peak score” value is recorded as 3.2 ± 0.4. For the same molecule, the “SI, severity index (cumulative disease score/days affected)” value in [5] (setting [30]) is listed as 3 ± 0.4. Also, in assay [5] (setting [31]), the “Incidence (affected/total)” value is 10/10 and the “Incidence, percentage affected” value was found to be 100%. Further, in assay [5] (setting [27]), the “Incidence (affected/total)” value is 10/10. In addition, the “Incidence, percentage affected” value in assay [5] (setting [28]) stood at 100%. For the same molecule, in assay [5] (setting [29]), the “CDS, cumulative disease score over 30 days of experiment” value is 55.8 ± 3.9; the “DA, days affected” value is on record as 17 ± 0.3; the “DO, day of onset in affected animals” value is given as 13.3 ± 0.3; the “PS, peak score” value worked out at 4 ± 0.1. Further, the “SI, severity index (cumulative disease score/days affected)” value in assay [5] (setting [29]) is reported as 3.14 ± 0.2. In addition, the “CD4+ T cell proliferation in the absence of CD8+ T cells” value in assay [6] is listed as “proliferated robustly”. Further, the “frequency/number of MOG35-55 I-Ab tetramer+ CD4+ T cells” value in assay [7] is given as “elicited”. Besides, the “frequency/number of MOG35-55 I-Ab tetramer+ CD4+ T cells” value in [7] (listed as MOG) is reported as “increase”. Further, the “SP specific CD8+ T cells detected” value in [2] (MOG35-55 immunized mice) was “very few”.

As for SIINFEKL [ovalbumin derived peptide], in assay [8], the “activation (CD69) of OT-1 TCR cells” value was “robust activation”.

“ASRSNRYFWL [surrogate peptide for EAE6-CD8 TCR from H2-Db yeast library]”: the “frequency of CD8+ T cells specific” value in assay [2] (setting [25]) was “increased”; in assay [2] (setting [26]) it was “no change”. The “pMHC tetramer staining of EAE6-CD8 TCR cells” value in [3] is on record as “robust staining”.

Turning to “HDRVNWEYI [36th enriched peptide for EAE7-CD8 TCR]”, the “frequency of CD8+ T cells specific” value in assay [2] (setting [25]) is recorded as “increased”; in assay [2] (setting [26]), “higher frequency”. In [4], the “pMHC tetramer staining of EAE7-CD8 TCR cells” value is recorded as “robust tetramer staining”.

B1: EAE3-CD4 (TCR)
alpha mTRAV14D-1 mTRAJ43 CDR3: CAASGANNNNAPRF
beta mTRBV3 mTRBJ2-5 CDR3: CASSLEGHQDTQYF
On to B1, for which, in assay [9], the binding result is recorded as “recognises”.

B2: EAE7-CD8 (TCR)
alpha mTRAV5D-4 mTRAJ45 CDR3: CAASVNTEGADRLTF
beta mTRBV15 mTRBJ1-1 CDR3: CASTNRGEVFF
Consider B2, for which the binding result in assay [10], in assay [11], in assay [12], in assay [13], in [14] and in assay [15] was “recognises” throughout. For the same molecule, the binding result in [16] and in [17] was “recognises” each time.

B3: EAE2-CD4 (TCR)
alpha mTRAV12-1 mTRAJ23 CDR3: CALRNYNQGKLIF
beta mTRBV16 mTRBJ1-4 CDR3: CASSLDQGWDERLFF
Regarding B3, the binding result in assay [9] is “recognises”.

B4: ovalbumin protein: whole OVA protein (protein, UniProt P01012 2-386, looked up)
Ovalbumin: GSIGAASMEFCFDVFKELKVHHANENIFYCPIAIMSALAMVYLGAKDSTRTQINKVVRFDKLPGFGDSIEAQCGTSVNVHSSLRDILNQITKPNDVYSFSLASRLYAEERYPILPEYLQCVKELYRGGLEPINFQTAADQARELINSWVESQTNGIIRNVLQPSSVDSQTAMVLVNAIVFKGLWEKAFKDEDTQAMPFRVTEQESKPVQMMYQIGLFRVASMASEKMKILELPFASGTMSMLVLLPDEVSGLEQLESIINFEKLTEWTSSNVMEERKIKVYLPRMKMEEKYNLTSVLMAMGITDVFSSSANLSGISSAESLKISQAVHAAHAEINEAGREVVGSAEAGVDAASVSEEFRADHPFLFCIKHIATNAVLFFGRCVSP
As for B4, in assay [8], the “activation (CD69) of OT-1 TCR cells” value is “robustly stimulated”.

B5: EAE6-CD8 (TCR)
alpha mTRAV12-1 mTRAJ31 CDR3: CALSDYNRIFF
beta mTRBV19 mTRBJ2-3 CDR3: CASSITPLGGLETLYF
As to B5, the binding result in assay [18], in assay [19], in assay [20], in assay [21], in assay [22] and in assay [23] was “recognises” each time. Also, the binding result in assay [24] is “recognises”.
